Experimental data: patent US20230398130A1, “METHODS AND COMPOSITIONS FOR DIFFERENTIATING STEM CELLS” (Massachusetts Institute of Technology, priority 2020, published 2023)

Columns and labels:
ISC-enriched organoids [1] = assay: Primary screen, 384-well 2.5-D organoid differentiation (ENR+CD, 6 days): carbachol-induced lysozyme secretion (LYZ.S); assay type: cell-based, murine; settings: primary screen; for Dose.FC.LYZ.S: FC vs plate median; for Z.LYZ.S: standard z score; for SSMD.LYZ.S: strictly standardized mean difference
Source text: (§1) High-throughput screening.

ISC-enriched organoids [2] = assay: Primary screen, 384-well 2.5-D organoid differentiation (ENR+CD, 6 days): basal lysozyme secretion (LYZ.NS); assay type: cell-based, murine; settings: primary screen; for Dose.FC.LYZ.NS: FC vs plate median; for Z.LYZ.NS: standard z score; for SSMD.LYZ.NS: strictly standardized mean difference
Source text: as §1

ISC-enriched organoids [3] = assay: Primary screen, 384-well 2.5-D organoid differentiation (ENR+CD, 6 days, Target Selective Inhibitor Library, vs whole-plate median): ATP (CellTiter-Glo 3D, CTG); settings: primary screen; for Dose.FC.CTG: FC vs plate median; for Z.CTG: standard z score; for SSMD.CTG: strictly standardized mean difference
[4] = 1st of the 4 dose lines of the treatment (dose not given)
[5] = 2nd of the 4 dose lines of the treatment (dose not given)
[6] = 3rd of the 4 dose lines of the treatment (dose not given)
[7] = 4th of the 4 dose lines of the treatment (dose not given)

Row | Structure (SMILES) | Z.LYZ.S (ISC-enriched organoids [1]; [4]) | Z.LYZ.S (ISC-enriched organoids [1]; [5]) | Z.LYZ.S (ISC-enriched organoids [1]; [6]) | Z.LYZ.S (ISC-enriched organoids [1]; [7]) | SSMD.LYZ.S (ISC-enriched organoids [1]; [4]) | SSMD.LYZ.S (ISC-enriched organoids [1]; [5]) | SSMD.LYZ.S (ISC-enriched organoids [1]; [6]) | SSMD.LYZ.S (ISC-enriched organoids [1]; [7]) | SSMD.LYZ.NS (ISC-enriched organoids [2]; [4]) | SSMD.LYZ.NS (ISC-enriched organoids [2]; [5]) | SSMD.LYZ.NS (ISC-enriched organoids [2]; [6]) | SSMD.LYZ.NS (ISC-enriched organoids [2]; [7]) | Z.CTG (ISC-enriched organoids [3]; Dose 0.08 uM) | Z.CTG (ISC-enriched organoids [3]; Dose 0.40 uM) | Z.CTG (ISC-enriched organoids [3]; Dose 2.00 uM) | Z.CTG (ISC-enriched organoids [3]; Dose 10.00 uM) | SSMD.CTG (ISC-enriched organoids [3]; [4]) | SSMD.CTG (ISC-enriched organoids [3]; [5]) | SSMD.CTG (ISC-enriched organoids [3]; [6]) | SSMD.CTG (ISC-enriched organoids [3]; [7]) | other results
1 | Nc1cccc2c1CN(C1CCC(=O)NC1=O)C2=O (stereo not drawn) [Lenalidomide (CC-5013)] | 0.639 | 1.137 | 0.162 | −0.290 | 0.593 | 0.873 | 0.193 | −0.298 | 1.215 | 0.674 | 0.472 | −0.318 | 0.110 | −0.037 | −0.596 | −0.754 | 0.169 | −0.049 | −0.710 | −0.802 | Dose.FC.LYZ.S (ISC-enriched organoids [1]; Dose 0.08 uM): 0.099 log 2 fold change; Dose.FC.LYZ.S (ISC-enriched organoids [1]; Dose 0.40 uM): 0.176 log 2 fold change; Dose.FC.LYZ.S (ISC-enriched organoids [1]; Dose 2.00 uM): 0.025 log 2 fold change; Dose.FC.LYZ.S (ISC-enriched organoids [1]; Dose 10.00 uM): −0.045 log 2 fold change; Dose.FC.LYZ.NS (ISC-enriched organoids [2]; Dose 0.08 uM): 0.147 log 2 fold change; Z.LYZ.NS (ISC-enriched organoids [2]; Dose 0.08 uM): 1.283; Dose.FC.LYZ.NS (ISC-enriched organoids [2]; Dose 0.40 uM): 0.099 log 2 fold change; Z.LYZ.NS (ISC-enriched organoids [2]; Dose 0.40 uM): 0.863; Dose.FC.LYZ.NS (ISC-enriched organoids [2]; Dose 2.00 uM): 0.071 log 2 fold change; Z.LYZ.NS (ISC-enriched organoids [2]; Dose 2.00 uM): 0.615; Dose.FC.LYZ.NS (ISC-enriched organoids [2]; Dose 10.00 uM): −0.041 log 2 fold change; Z.LYZ.NS (ISC-enriched organoids [2]; Dose 10.00 uM): −0.360; Dose.FC.CTG (ISC-enriched organoids [3]; Dose 0.08 uM): 0.046 log 2 fold change; Dose.FC.CTG (ISC-enriched organoids [3]; Dose 0.40 uM): −0.016 log 2 fold change; Dose.FC.CTG (ISC-enriched organoids [3]; Dose 2.00 uM): −0.250 log 2 fold change; Dose.FC.CTG (ISC-enriched organoids [3]; Dose 10.00 uM): −0.316 log 2 fold change
2 | N#Cc1ccc(C(c2ccc(C#N)cc2)n2cncn2)cc1 [Letrozole] | 0.258 | 0.970 | 0.038 | 0.040 | 0.212 | 0.764 | 0.041 | 0.028 | 0.554 | 1.104 | 0.063 | −0.042 | −0.031 | 0.241 | 0.236 | 0.408 | −0.043 | 0.336 | 0.288 | 0.606 | –
3 | CCN1CCC[C@H]1CNC(=O)c1cc(S(N)(=O)=O)ccc1OC [Levosulpiride] | −0.108 | 0.830 | 0.800 | −0.168 | −0.076 | 0.774 | 0.531 | −0.154 | 0.092 | 0.226 | 0.501 | −0.195 | −0.102 | −0.015 | 0.074 | 0.215 | −0.129 | −0.019 | 0.087 | 0.297 | –
4 | CCN(CC)CC(=O)Nc1c(C)cccc1C [Lidocaine] | 0.537 | 0.167 | −0.244 | −0.061 | 0.448 | 0.197 | −0.268 | −0.070 | 0.904 | 0.132 | 0.008 | 0.183 | −0.188 | −0.365 | 0.081 | −0.611 | −0.237 | −0.371 | 0.116 | −0.889 | –
